According to PubChem BioAssay AID1963827 (Molecular Pharmacology Branch, DTP, NCI, 2024):
pIC50: −log10 of the molar value.

Test system: 994946-033-R-J1-PDC complex spheroid viability
Experiment: Anticancer human tumor 994946-033-R-J1-PDC patient-derived melanoma cell line growth inhibition [POLQ]
Settings: for pIC50: curve of first compound; for viability, T/C: stronger effect = lower value
How it was run: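 Complex spheroid viability model combining PDC tumour cells with endothelial (HUVEC) and MSC stromal cells. Novobiocin, ART-558 or RP6685 were tested singly and in combination with standard and investigational anticancer drugs. Each was titrated in half-log steps from near clinical Cmax, or from 10 microM where Cmax was unknown.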

[1] = second compound 0.0316 µM, first compound 0.0316 µM
[2] = second compound 0.0316 µM, first compound 0.1 µM
[3] = second compound 0.0316 µM, first compound 0.316 µM
[4] = second compound 0.0316 µM, first compound 1 µM
[5] = second compound 0.1 µM, first compound 0.0316 µM
[6] = second compound 0.1 µM, first compound 0.1 µM
[7] = second compound 0.1 µM, first compound 0.316 µM
[8] = second compound 0.1 µM, first compound 1 µM
[9] = second compound 0.316 µM, first compound 0.0316 µM
[10] = second compound 0.316 µM, first compound 0.1 µM
[11] = second compound 0.316 µM, first compound 0.316 µM
[12] = second compound 0.316 µM, first compound 1 µM
[13] = second compound 1 µM, first compound 0.0316 µM
[14] = second compound 1 µM, first compound 0.1 µM
[15] = second compound 1 µM, first compound 0.316 µM
[16] = second compound 1 µM, first compound 1 µM
[17] = second compound 3.16 µM, first compound 0.0316 µM
[18] = second compound 3.16 µM, first compound 0.1 µM
[19] = second compound 3.16 µM, first compound 0.316 µM
[20] = second compound 3.16 µM, first compound 1 µM
[21] = second compound 10 µM, first compound 0.0316 µM
[22] = second compound 10 µM, first compound 0.1 µM
[23] = second compound 10 µM, first compound 0.316 µM
[24] = second compound 10 µM, first compound 1 µM
[25] = second compound 0.0316 µM, first compound 0.00316 µM
[26] = second compound 0.0316 µM, first compound 0.01 µM
[27] = second compound 0.1 µM, first compound 0.00316 µM
[28] = second compound 0.1 µM, first compound 0.01 µM
[29] = second compound 0.316 µM, first compound 0.00316 µM
[30] = second compound 0.316 µM, first compound 0.01 µM
[31] = second compound 1 µM, first compound 0.00316 µM
[32] = second compound 1 µM, first compound 0.01 µM
[33] = second compound 3.16 µM, first compound 0.00316 µM
[34] = second compound 3.16 µM, first compound 0.01 µM
[35] = second compound 10 µM, first compound 0.00316 µM
[36] = second compound 10 µM, first compound 0.01 µM
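Further: spheroids exposed to drugs for 7 days.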
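Wherever viability, T/C is given: 100% = DMSO vehicle treated spheroids.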

CCCS(=O)(=O)Nc1ccc(F)c(C(=O)c2c[nH]c3ncc(-c4ccc(Cl)cc4)cc23)c1F + Cc1cccc(N(C)C(=O)C2C(O)CCN2c2nc(C)cc(C(F)(F)F)c2C#N)c1
pIC50 (second compound 0.0316 µM): 5.20 | pIC50 (second compound 0.1 µM): 5.21 | pIC50 (second compound 0.316 µM): 5.19 | pIC50 (second compound 1 µM): 5.31 | pIC50 (second compound 3.16 µM): 5.22 | pIC50 (second compound 10 µM): 5.26 | viability, T/C [1]: 67.5% | viability, T/C [2]: 102% | viability, T/C [3]: 94.3% | viability, T/C [4]: 81.1% | viability, T/C (second compound 0.0316 µM, first compound 3.16 µM): 85.7% | viability, T/C (second compound 0.0316 µM, first compound 10 µM): 27.1% | viability, T/C [5]: 91.3% | viability, T/C [6]: 110% | viability, T/C [7]: 67.4% | viability, T/C [8]: 115% | viability, T/C (second compound 0.1 µM, first compound 3.16 µM): 88.2% | viability, T/C (second compound 0.1 µM, first compound 10 µM): 22.4% | viability, T/C [9]: 78.7% | viability, T/C [10]: 101% | viability, T/C [11]: 95% | viability, T/C [12]: 104% | viability, T/C (second compound 0.316 µM, first compound 3.16 µM): 99.3% | viability, T/C (second compound 0.316 µM, first compound 10 µM): 22.9% | viability, T/C [13]: 64.8% | viability, T/C [14]: 71.4% | viability, T/C [15]: 81.6% | viability, T/C [16]: 93% | viability, T/C (second compound 1 µM, first compound 3.16 µM): 63.7% | viability, T/C (second compound 1 µM, first compound 10 µM): 20.9% | viability, T/C [17]: 103% | viability, T/C [18]: 76.3% | viability, T/C [19]: 97.3% | viability, T/C [20]: 84.9% | viability, T/C (second compound 3.16 µM, first compound 3.16 µM): 95.3% | viability, T/C (second compound 3.16 µM, first compound 10 µM): 17.4% | viability, T/C [21]: 88.4% | viability, T/C [22]: 84.6% | viability, T/C [23]: 112% | viability, T/C [24]: 95.6% | viability, T/C (second compound 10 µM, first compound 3.16 µM): 80.9% | viability, T/C (second compound 10 µM, first compound 10 µM): 17.1%

Cn1ncnc1[C@H]1c2n[nH]c(=O)c3cc(F)cc(c23)N[C@@H]1c1ccc(F)cc1 + COC1C(OC(N)=O)C(O)C(Oc2ccc3c(O)c(NC(=O)c4ccc(O)c(CC=C(C)C)c4)c(=O)oc3c2C)OC1(C)C
pIC50 (second compound 0.0316 µM): < 7.00 | pIC50 (second compound 0.1 µM): < 7.00 | pIC50 (second compound 0.316 µM): < 7.00 | pIC50 (second compound 1 µM): < 7.00 | pIC50 (second compound 3.16 µM): < 7.00 | pIC50 (second compound 10 µM): < 7.00 | viability, T/C (second compound 0.0316 µM, first compound 0.000316 µM): 92.5% | viability, T/C (second compound 0.0316 µM, first compound 0.001 µM): 96.1% | viability, T/C [25]: 123% | viability, T/C [26]: 93.6% | viability, T/C [1]: 71.5% | viability, T/C [2]: 63.2% | viability, T/C (second compound 0.1 µM, first compound 0.000316 µM): 97.7% | viability, T/C (second compound 0.1 µM, first compound 0.001 µM): 81.9% | viability, T/C [27]: 93.4% | viability, T/C [28]: 94.6% | viability, T/C [5]: 72.8% | viability, T/C [6]: 55.6% | viability, T/C (second compound 0.316 µM, first compound 0.000316 µM): 93.7% | viability, T/C (second compound 0.316 µM, first compound 0.001 µM): 101% | viability, T/C [29]: 93.3% | viability, T/C [30]: 76.6% | viability, T/C [9]: 66.3% | viability, T/C [10]: 77.7% | viability, T/C (second compound 1 µM, first compound 0.000316 µM): 91.4% | viability, T/C (second compound 1 µM, first compound 0.001 µM): 103% | viability, T/C [31]: 104% | viability, T/C [32]: 106% | viability, T/C [13]: 59.9% | viability, T/C [14]: 66.4% | viability, T/C (second compound 3.16 µM, first compound 0.000316 µM): 106% | viability, T/C (second compound 3.16 µM, first compound 0.001 µM): 81.2% | viability, T/C [33]: 117% | viability, T/C [34]: 82.3% | viability, T/C [17]: 70.4% | viability, T/C [18]: 65.2% | viability, T/C (second compound 10 µM, first compound 0.000316 µM): 89.5% | viability, T/C (second compound 10 µM, first compound 0.001 µM): 102% | viability, T/C [35]: 110% | viability, T/C [36]: 79.5% | viability, T/C [21]: 78.4% | viability, T/C [22]: 71.8%

CCc1c2c(nc3ccc(O)cc13)-c1cc3c(c(=O)n1C2)COC(=O)[C@]3(O)CC + COC1C(OC(N)=O)C(O)C(Oc2ccc3c(O)c(NC(=O)c4ccc(O)c(CC=C(C)C)c4)c(=O)oc3c2C)OC1(C)C
pIC50 (second compound 0.0316 µM): > 8.50 | pIC50 (second compound 0.1 µM): > 8.50 | pIC50 (second compound 0.316 µM): > 8.50 | pIC50 (second compound 1 µM): > 8.50 | pIC50 (second compound 3.16 µM): > 8.50 | pIC50 (second compound 10 µM): > 8.50 | viability, T/C [25]: 21.2% | viability, T/C [26]: 10.5% | viability, T/C [1]: 5.04% | viability, T/C [2]: 6.46% | viability, T/C [3]: 4.53% | viability, T/C [4]: 1.07% | viability, T/C [27]: 14.8% | viability, T/C [28]: 7.14% | viability, T/C [5]: 4.91% | viability, T/C [6]: 4.35% | viability, T/C [7]: 3.22% | viability, T/C [8]: 0.99% | viability, T/C [29]: 20.7% | viability, T/C [30]: 8.29% | viability, T/C [9]: 4.94% | viability, T/C [10]: 5% | viability, T/C [11]: 3.67% | viability, T/C [12]: 0.92% | viability, T/C [31]: 21.2% | viability, T/C [32]: 8.21% | viability, T/C [13]: 5.36% | viability, T/C [14]: 4.87% | viability, T/C [15]: 3% | viability, T/C [16]: 0.93% | viability, T/C [33]: 17.8% | viability, T/C [34]: 9.17% | viability, T/C [17]: 4.15% | viability, T/C [18]: 4.13% | viability, T/C [19]: 3.2% | viability, T/C [20]: 0.9% | viability, T/C [35]: 16.8% | viability, T/C [36]: 6.62% | viability, T/C [21]: 5.93% | viability, T/C [22]: 4.77% | viability, T/C [23]: 2.81% | viability, T/C [24]: 1.02%
